ChEMBL document CHEMBL1138574, “Regioselective synthesis and stereochemical structure of anti-tumor active dispiro[3H-indole-3,2'-pyrrolidine-3',3''-piperidine]-2(1H),4''-diones” (2009)

Tests used:
Format in all cases: functional
Rattus norvegicus [1] = experiment: Antiinflammatory activity in Wister albino rat assessed as inhibition of carrageenan-induced paw oedema at 50 mg/kg, ip administered 1 hr before carrageenan challenge measured after 4 hrs of induction of inflammation relative to control; conditions: route intraperitoneal
NCI-H522 = experiment: Antitumor activity against human NCI-H522 cells assessed as cell growth at 10 uM after 48 hrs by sulforhodamine B assay; conditions: NCI-H522, 48 h, read-out: Activity
HOP-92 = experiment: Antitumor activity against human HOP92 cells assessed as cell growth at 10 uM after 48 hrs by sulforhodamine B assay; conditions: HOP-92, 48 h, read-out: Activity
SR = experiment: Antitumor activity against human SR cells assessed as cell growth at 10 uM after 48 hrs by sulforhodamine B assay; conditions: read-out: Activity
Rattus norvegicus [2] = experiment: Antiinflammatory activity in Wister albino rat assessed as inhibition of carrageenan-induced paw oedema at 50 mg/kg, ip administered 1 hr before carrageenan challenge measured after 3 hrs of induction of inflammation relative to control; conditions: route intraperitoneal
CAKI-1 = experiment: Antitumor activity against human Caki1 cells assessed as cell growth at 10 uM after 48 hrs by sulforhodamine B assay; conditions: CAKI-1, 48 h, read-out: Activity
HCT-15 = experiment: Antitumor activity against human HCT15 cells assessed as cell growth at 10 uM after 48 hrs by sulforhodamine B assay; conditions: HCT-15, 48 h, read-out: Activity
TK-10 = experiment: Antitumor activity against human TK10 cells assessed as cell growth at 10 uM after 48 hrs by sulforhodamine B assay; conditions: TK-10, 48 h, read-out: Activity
BT-549 = experiment: Antitumor activity against human BT549 cells assessed as cell growth at 10 uM after 48 hrs by sulforhodamine B assay; conditions: BT-549, 48 h, read-out: Activity
COLO 205 = experiment: Antitumor activity against human COLO205 cells assessed as cell growth at 10 uM after 48 hrs by sulforhodamine B assay; conditions: COLO 205, 48 h, read-out: Activity
SF-539 = experiment: Antitumor activity against human SF539 cells assessed as cell growth at 10 uM after 48 hrs by sulforhodamine B assay; conditions: SF-539, 48 h, read-out: Activity
LOX IMVI = experiment: Antitumor activity against human LOXIMVI cells assessed as cell growth at 10 uM after 48 hrs by sulforhodamine B assay; conditions: read-out: Activity
SN12C = experiment: Antitumor activity against human SN12C cells assessed as cell growth at 10 uM after 48 hrs by sulforhodamine B assay; conditions: read-out: Activity
[3] = Antitumor activity against human Hs 578T cells assessed as cell growth at 10 uM after 48 hrs by sulforhodamine B assay; conditions: read-out: Activity
CCRF-CEM = experiment: Antitumor activity against human CCRF-CEM cells assessed as cell growth at 10 uM after 48 hrs by sulforhodamine B assay; conditions: read-out: Activity
SNB-75 = experiment: Antitumor activity against human SNB75 cells assessed as cell growth at 10 uM after 48 hrs by sulforhodamine B assay; conditions: SNB-75, 48 h, read-out: Activity
HCT-116 = experiment: Antitumor activity against human HCT116 cells assessed as cell growth at 10 uM after 48 hrs by sulforhodamine B assay; conditions: HCT-116, 48 h, read-out: Activity
NCI-H322M = experiment: Antitumor activity against human NCI-H322M cells assessed as cell growth at 10 uM after 48 hrs by sulforhodamine B assay; conditions: read-out: Activity
NCI/ADR-RES = experiment: Antitumor activity against human NCI/ADR-RES cells assessed as cell growth at 10 uM after 48 hrs by sulforhodamine B assay; conditions: read-out: Activity
SF-268 = experiment: Antitumor activity against human SF268 cells assessed as cell growth at 10 uM after 48 hrs by sulforhodamine B assay; conditions: SF-268, 48 h, read-out: Activity
U-251 = experiment: Antitumor activity against human U251 cells assessed as cell growth at 10 uM after 48 hrs by sulforhodamine B assay; conditions: U-251, 48 h, read-out: Activity
NCI-H23 = experiment: Antitumor activity against human NCI-H23 cells assessed as cell growth at 10 uM after 48 hrs by sulforhodamine B assay; conditions: NCI-H23, 48 h, read-out: Activity
MCF7 = experiment: Antitumor activity against human MCF7 cells assessed as cell growth at 10 uM after 48 hrs by sulforhodamine B assay; conditions: MCF7, 48 h, read-out: Activity
Rattus norvegicus [4] = experiment: Antiinflammatory activity in Wister albino rat assessed as inhibition of carrageenan-induced paw oedema at 50 mg/kg, ip administered 1 hr before carrageenan challenge measured after 4 hrs of induction of inflammation relative to indomethacin; conditions: route intraperitoneal
RXF 393 = experiment: Antitumor activity against human RXF393 cells assessed as cell growth at 10 uM after 48 hrs by sulforhodamine B assay; conditions: RXF 393, 48 h, read-out: Activity
Malme-3M = experiment: Antitumor activity against human MALME-3M cells assessed as cell growth at 10 uM after 48 hrs by sulforhodamine B assay; conditions: read-out: Activity
786-0 = experiment: Antitumor activity against human 786-0 cells assessed as cell growth at 10 uM after 48 hrs by sulforhodamine B assay; conditions: 786-0, 48 h, read-out: Activity
SK-MEL-28 = experiment: Antitumor activity against human SK-MEL-28 cells assessed as cell growth at 10 uM after 48 hrs by sulforhodamine B assay; conditions: SK-MEL-28, 48 h, read-out: Activity
UACC-257 = experiment: Antitumor activity against human UACC257 cells assessed as cell growth at 10 uM after 48 hrs by sulforhodamine B assay; conditions: UACC-257, 48 h, read-out: Activity
T47D = experiment: Antitumor activity against human T47D cells assessed as cell growth at 10 uM after 48 hrs by sulforhodamine B assay; conditions: read-out: Activity
MDA-MB-468 = experiment: Antitumor activity against human MDA-MB-468 cells assessed as cell growth at 10 uM after 48 hrs by sulforhodamine B assay; conditions: MDA-MB-468, 48 h, read-out: Activity
SK-MEL-2 = experiment: Antitumor activity against human SK-MEL-2 cells assessed as cell growth at 10 uM after 48 hrs by sulforhodamine B assay; conditions: SK-MEL-2, 48 h, read-out: Activity
SK-OV-3 = experiment: Antitumor activity against human SKOV3 cells assessed as cell growth at 10 uM after 48 hrs by sulforhodamine B assay; conditions: SK-OV-3, 48 h, read-out: Activity
A549 = experiment: Antitumor activity against human A549 cells assessed as cell growth at 10 uM after 48 hrs by sulforhodamine B assay; conditions: A549, 48 h, read-out: Activity
UACC-62 = experiment: Antitumor activity against human UACC62 cells assessed as cell growth at 10 uM after 48 hrs by sulforhodamine B assay; conditions: UACC-62, 48 h, read-out: Activity
HOP-62 = experiment: Antitumor activity against human HOP62 cells assessed as cell growth at 10 uM after 48 hrs by sulforhodamine B assay; conditions: HOP-62, 48 h, read-out: Activity
HCC 2998 = experiment: Antitumor activity against human HCC2998 cells assessed as cell growth at 10 uM after 48 hrs by sulforhodamine B assay; conditions: HCC 2998, 48 h, read-out: Activity

COc1ccc(/C=C2\CN(C)C[C@@]3(C2=O)[C@@H](c2ccccc2)CN(C)[C@@]32C(=O)Nc3ccccc32)cc1
inhibition in vivo at 50 mg/kg (Rattus norvegicus [1]): 78.7%
growth at 10 µM (NCI-H522): 50.2%
growth at 10 µM (HOP-92): 46.7%
growth at 10 µM (SR): 52.3%
inhibition in vivo at 50 mg/kg (Rattus norvegicus [2]): 76.5%
growth at 10 µM (CAKI-1): 54.3%
growth at 10 µM (HCT-15): 50.8%
growth at 10 µM (TK-10): 73.1%
growth at 10 µM (BT-549): 56.3%
growth at 10 µM (COLO 205): 67.4%
growth at 10 µM (SF-539): 74%
growth at 10 µM (LOX IMVI): 65.3%
growth at 10 µM (SN12C): 58.4%
growth at 10 µM [3]: 74.7%
growth at 10 µM (CCRF-CEM): 45.4%
growth at 10 µM (SNB-75): 59.4%
growth at 10 µM (HCT-116): 26.8%
growth at 10 µM (NCI-H322M): 79.7%
growth at 10 µM (NCI/ADR-RES): 36.5%
growth at 10 µM (SF-268): 61.8%
growth at 10 µM (U-251): 52.1%
growth at 10 µM (NCI-H23): 50.4%
growth at 10 µM (MCF7): 30.9%
inhibition in vivo at 50 mg/kg (Rattus norvegicus [4]): 139%
growth at 10 µM (RXF 393): 57.8%
growth at 10 µM (Malme-3M): 58.7%
growth at 10 µM (786-0): 57.2%
growth at 10 µM (SK-MEL-28): 76.3%
growth at 10 µM (UACC-257): 70.3%
growth at 10 µM (T47D): 31.6%
growth at 10 µM (MDA-MB-468): 58.9%
growth at 10 µM (SK-MEL-2): 60.7%
growth at 10 µM (SK-OV-3): 75.6%
growth at 10 µM (A549): 44.4%
growth at 10 µM (UACC-62): 47.8%
growth at 10 µM (HOP-62): 69.9%
growth at 10 µM (HCC 2998): 65.5%

CN1C/C(=C\c2ccc(Cl)cc2)C(=O)[C@]2(C1)[C@@H](c1ccc(Cl)cc1)CN(C)[C@@]21C(=O)Nc2ccccc21
inhibition in vivo at 50 mg/kg (Rattus norvegicus [1]): 42.2%
growth at 10 µM (NCI-H522): 59.8%
growth at 10 µM (HOP-92): 56.2%
growth at 10 µM (SR): 67.5%
inhibition in vivo at 50 mg/kg (Rattus norvegicus [2]): 49.6%
growth at 10 µM (CAKI-1): 45.8%
growth at 10 µM (HCT-15): 68.5%
growth at 10 µM (TK-10): 88.6%
growth at 10 µM (BT-549): 63.9%
growth at 10 µM (COLO 205): 92.7%
growth at 10 µM (SF-539): 83.3%
growth at 10 µM (LOX IMVI): 72.3%
growth at 10 µM (SN12C): 64.1%
growth at 10 µM [3]: 79.7%
growth at 10 µM (CCRF-CEM): 51.3%
growth at 10 µM (SNB-75): 56.7%
growth at 10 µM (HCT-116): 45.9%
growth at 10 µM (NCI-H322M): 68.7%
growth at 10 µM (NCI/ADR-RES): 62.1%
growth at 10 µM (SF-268): 60.6%
growth at 10 µM (U-251): 64.8%
growth at 10 µM (NCI-H23): 44.8%
growth at 10 µM (MCF7): 44.9%
inhibition in vivo at 50 mg/kg (Rattus norvegicus [4]): 74.7%
growth at 10 µM (RXF 393): 67.5%
growth at 10 µM (Malme-3M): 91.9%
growth at 10 µM (786-0): 71.8%
growth at 10 µM (SK-MEL-28): 101%
growth at 10 µM (UACC-257): 79.3%
growth at 10 µM (T47D): 46.1%
growth at 10 µM (MDA-MB-468): 56.6%
growth at 10 µM (SK-MEL-2): 76.2%
growth at 10 µM (SK-OV-3): 80.6%
growth at 10 µM (A549): 62.4%
growth at 10 µM (UACC-62): 67.2%
growth at 10 µM (HOP-62): 73.6%
growth at 10 µM (HCC 2998): 70.7%

CN1C/C(=C\c2ccc(Cl)cc2)C(=O)[C@]2(C1)[C@@H](c1ccc(Cl)cc1)CN(C)[C@@]21C(=O)N(C)c2ccccc21
inhibition in vivo at 50 mg/kg (Rattus norvegicus [1]): 45.7%
growth at 10 µM (NCI-H522): 56.4%
growth at 10 µM (HOP-92): 61.6%
growth at 10 µM (SR): 70.3%
inhibition in vivo at 50 mg/kg (Rattus norvegicus [2]): 44.5%
growth at 10 µM (CAKI-1): 56.6%
growth at 10 µM (HCT-15): 76.2%
growth at 10 µM (TK-10): 81.8%
growth at 10 µM (BT-549): 80.3%
growth at 10 µM (COLO 205): 99.6%
growth at 10 µM (SF-539): 78.1%
growth at 10 µM (LOX IMVI): 73.9%
growth at 10 µM (SN12C): 62.9%
growth at 10 µM [3]: 97.3%
growth at 10 µM (CCRF-CEM): 31.5%
growth at 10 µM (SNB-75): 65.2%
growth at 10 µM (HCT-116): 29.9%
growth at 10 µM (NCI-H322M): 79.1%
growth at 10 µM (NCI/ADR-RES): 56.9%
growth at 10 µM (SF-268): 83.6%
growth at 10 µM (U-251): 68.6%
growth at 10 µM (NCI-H23): 33.9%
growth at 10 µM (MCF7): 86.4%
inhibition in vivo at 50 mg/kg (Rattus norvegicus [4]): 80.9%
growth at 10 µM (RXF 393): 67.2%
growth at 10 µM (Malme-3M): 73.5%
growth at 10 µM (786-0): 73.9%
growth at 10 µM (SK-MEL-28): 104%
growth at 10 µM (UACC-257): 72%
growth at 10 µM (T47D): 46.7%
growth at 10 µM (MDA-MB-468): 66.9%
growth at 10 µM (SK-MEL-2): 71.9%
growth at 10 µM (SK-OV-3): 85.2%
growth at 10 µM (A549): 70%
growth at 10 µM (UACC-62): 59.9%
growth at 10 µM (HOP-62): 71%
growth at 10 µM (HCC 2998): 71.9%
